Laboratory results as given in EP3909578A1, “ANTIVIRAL COMPOSITION COMPRISING EEYARESTATIN I” (Universidad de Castilla la Mancha, priority 2020, dated 2021).
Read-outs that look alike come from different tables or passages of the source.

Columns and labels:
Zika virus [1] = assay: Virucidal activity: cell-free incubation of virus sample with drug at 37°C, then TCID50 titration; settings: for virucidal activity (loss of viral infectivity): incubation at 37°C in the absence of cells, EEY 10 µM, XAN 10 µM, AMA 800 µM for 4 hours, or 6 µM over time
Excerpt: (§1) • Figure 1. Schematic representation of flavivirus life cycle and steps inhibited by eeyarestatin I. The antiviral effect observed during treatment with eeyarestatin I can be due to the inhibition of at least three different steps of the life cycle (indicated with a red star and highlighted in red letters). A, Inhibition of the valosin-containing protein / p97 ATPase (VCP/p97) and/or ERAD pathway indirectly affects virus replication on ER factories. B, Inhibition of VCP/p97 affects virus uncoating. C, Novel mechanism of action described in this invention: eeyarestatin I reduces virus particle infectivity before entering the cell (discovery patented here). • Figure 2. Cell viability after exposure to VCP/p97 inhibitors. Viability of Vero (African green monkey kidney fibroblasts) cells treated with VCP/p97 inhibitors xanthohumol (XAN) and eeyarestatin I (EEY) during 24 (A) or 48 hours (B). Cellular viability is represented as the percentage of metabolically active cells relative to mock-treated cells (CellTiter-Blue Cell Viability Assay, Promega). There are given the 50% cytotoxicity concentration (CC50) values for each drug and exposure time tested. • Figure 3. VCP/p97 drugs Xanthohumol and eeyarestatin I inhibit virus replication in cell culture (Vero cells). Virus titres measured by 50% tissue culture infectious dose (TCID50) in the supernatants of Zika virus-infected cells. A, Schematic representation of the assay. A monolayer of Vero cells was inoculated with Zika virus at a multiplicity of infection (MOI) of 1 TCID50 per cell (input). After 1 hour of incubation at 37°C, to allow virus adsorption, the supernatant was removed, the cells washed, and fresh media containing each drug at the concentrations indicated was added. At 24 hours post infection the cellular supernatants were collected (virus progeny) and the virus yields quantified by TCID50 (virus titration). B-C, Changes in virus titres and cell viability in cultures treated with increasing concentrations of eeyarestatin I (B) and xanthohumol (C) for 24 hours. The 50% inhibitory concentration (IC50) and the selectivity index (SI) values are provided for each drug. […] A, Schematic representation of the assay. The virus sample is directly incubated at 37°C in the presence of increasing concentrations of drugs. The treated sample is collected at different time points and directly titrated by TCID50. B-D Decrease in infectivity observed in a virus sample treated with amantadine (AMA), xanthohumol (XAN) or eeyarestatin I (EEY) and compared to a virus sample untreated (no drug) or mock-treated with vehicle (DMSO). B, Zika virus was incubated during 4 hours at 37°C in the presence of EEY (10 µM), XAN (10 µM), AMA (800 µM) or in the absence of drugs. C, Changes in the infectivity along time of a Zika virus sample incubated at 37°C in the presence of 6 µM EEY or XAN, or in the absence of drugs (No drug, DMSO). D, Changes in Usutu virus infectivity along time for a sample incubated at 37°C in the presence of 6 µM EEY or XAN, or in the absence of drugs (No drug, DMSO). • Figure 5. Eeyarestatin I exerts virucidal activity in a dose-dependent manner. […] Eeyarestatin I half maximum inhibitory concentration (IC50) is <1 µM for both Zika (A) and Usutu (B) viruses. • Figure 6. […] A, Schematic representation of the procedure to select adapted virus. In each virus passage, 100 µl of neat virus from the previous passage are inoculated to a monolayer of 10^5 Vero cells. After cell wash, the monolayer is incubated at 37°C and 5% CO2 in 1 ml of media (DMEM, 10% foetal bovine serum, 100 units penicillin-streptomycin) in the presence (EEY-adapted) or absence (untreated) of 5 µM eeyarestatin I. At 48 hours post-infection, the cellular supernatants are collected, titrated, and employed for the following virus passage. This process is repeated for a total of nine viral transfers. […]

Vero cells = assay: Cell viability of Vero cells after exposure to VCP/p97 inhibitors (CellTiter-Blue Cell Viability Assay); type: cell-based, African green monkey
Excerpt: • Figure 1. Schematic representation of flavivirus life cycle and steps inhibited by eeyarestatin I. The antiviral effect observed during treatment with eeyarestatin I can be due to the inhibition of at least three different steps of the life cycle (indicated with a red star and highlighted in red letters). A, Inhibition of the valosin-containing protein / p97 ATPase (VCP/p97) and/or ERAD pathway indirectly affects virus replication on ER factories. B, Inhibition of VCP/p97 affects virus uncoating. C, Novel mechanism of action described in this invention: eeyarestatin I reduces virus particle infectivity before entering the cell (discovery patented here). • Figure 2. Cell viability after exposure to VCP/p97 inhibitors. Viability of Vero (African green monkey kidney fibroblasts) cells treated with VCP/p97 inhibitors xanthohumol (XAN) and eeyarestatin I (EEY) during 24 (A) or 48 hours (B). Cellular viability is represented as the percentage of metabolically active cells relative to mock-treated cells (CellTiter-Blue Cell Viability Assay, Promega). […] Virus titres measured by 50% tissue culture infectious dose (TCID50) in the supernatants of Zika virus-infected cells. […] At 24 hours post infection the cellular supernatants were collected (virus progeny) and the virus yields quantified by TCID50 (virus titration). […]

Usutu virus = assay: Virucidal activity: cell-free incubation of virus sample with drug at 37°C, then TCID50 titration; settings: for virucidal activity (loss of viral infectivity): incubation at 37°C in the absence of cells, 6 µM over time
Excerpt: as §1

[2] = test system: Zika virus passaged during nine consecutive transfers (p9); assay: Virucidal activity on Zika virus populations after nine passages with or without 5 µM eeyarestatin I (resistance selection)
Excerpt: • Figure 1. Schematic representation of flavivirus life cycle and steps inhibited by eeyarestatin I. The antiviral effect observed during treatment with eeyarestatin I can be due to the inhibition of at least three different steps of the life cycle (indicated with a red star and highlighted in red letters). A, Inhibition of the valosin-containing protein / p97 ATPase (VCP/p97) and/or ERAD pathway indirectly affects virus replication on ER factories. B, Inhibition of VCP/p97 affects virus uncoating. C, Novel mechanism of action described in this invention: eeyarestatin I reduces virus particle infectivity before entering the cell (discovery patented here). • Figure 2. Cell viability after exposure to VCP/p97 inhibitors. Viability of Vero (African green monkey kidney fibroblasts) cells treated with VCP/p97 inhibitors xanthohumol (XAN) and eeyarestatin I (EEY) during 24 (A) or 48 hours (B). Cellular viability is represented as the percentage of metabolically active cells relative to mock-treated cells (CellTiter-Blue Cell Viability Assay, Promega). There are given the 50% cytotoxicity concentration (CC50) values for each drug and exposure time tested. • Figure 3. VCP/p97 drugs Xanthohumol and eeyarestatin I inhibit virus replication in cell culture (Vero cells). Virus titres measured by 50% tissue culture infectious dose (TCID50) in the supernatants of Zika virus-infected cells. A, Schematic representation of the assay. A monolayer of Vero cells was inoculated with Zika virus at a multiplicity of infection (MOI) of 1 TCID50 per cell (input). After 1 hour of incubation at 37°C, to allow virus adsorption, the supernatant was removed, the cells washed, and fresh media containing each drug at the concentrations indicated was added. At 24 hours post infection the cellular supernatants were collected (virus progeny) and the virus yields quantified by TCID50 (virus titration). B-C, Changes in virus titres and cell viability in cultures treated with increasing concentrations of eeyarestatin I (B) and xanthohumol (C) for 24 hours. The 50% inhibitory concentration (IC50) and the selectivity index (SI) values are provided for each drug. […] A, Schematic representation of the assay. The virus sample is directly incubated at 37°C in the presence of increasing concentrations of drugs. The treated sample is collected at different time points and directly titrated by TCID50. B-D Decrease in infectivity observed in a virus sample treated with amantadine (AMA), xanthohumol (XAN) or eeyarestatin I (EEY) and compared to a virus sample untreated (no drug) or mock-treated with vehicle (DMSO). B, Zika virus was incubated during 4 hours at 37°C in the presence of EEY (10 µM), XAN (10 µM), AMA (800 µM) or in the absence of drugs. […]

Zika virus [3] = assay: Inhibition of Zika virus replication in infected Vero cell culture (MOI 1, virus yield by TCID50); type: cell-based; settings: for Zika virus replication during infections in cell culture: Vero cells, MOI of 1, drug added after 1 hour adsorption, 24 hours post infection
Excerpt: • Figure 1. Schematic representation of flavivirus life cycle and steps inhibited by eeyarestatin I. The antiviral effect observed during treatment with eeyarestatin I can be due to the inhibition of at least three different steps of the life cycle (indicated with a red star and highlighted in red letters). A, Inhibition of the valosin-containing protein / p97 ATPase (VCP/p97) and/or ERAD pathway indirectly affects virus replication on ER factories. B, Inhibition of VCP/p97 affects virus uncoating. C, Novel mechanism of action described in this invention: eeyarestatin I reduces virus particle infectivity before entering the cell (discovery patented here). • Figure 2. Cell viability after exposure to VCP/p97 inhibitors. Viability of Vero (African green monkey kidney fibroblasts) cells treated with VCP/p97 inhibitors xanthohumol (XAN) and eeyarestatin I (EEY) during 24 (A) or 48 hours (B). Cellular viability is represented as the percentage of metabolically active cells relative to mock-treated cells (CellTiter-Blue Cell Viability Assay, Promega). There are given the 50% cytotoxicity concentration (CC50) values for each drug and exposure time tested. • Figure 3. VCP/p97 drugs Xanthohumol and eeyarestatin I inhibit virus replication in cell culture (Vero cells). Virus titres measured by 50% tissue culture infectious dose (TCID50) in the supernatants of Zika virus-infected cells. A, Schematic representation of the assay. A monolayer of Vero cells was inoculated with Zika virus at a multiplicity of infection (MOI) of 1 TCID50 per cell (input). After 1 hour of incubation at 37°C, to allow virus adsorption, the supernatant was removed, the cells washed, and fresh media containing each drug at the concentrations indicated was added. At 24 hours post infection the cellular supernatants were collected (virus progeny) and the virus yields quantified by TCID50 (virus titration). B-C, Changes in virus titres and cell viability in cultures treated with increasing concentrations of eeyarestatin I (B) and xanthohumol (C) for 24 hours. […]

[4] = cell-free incubation at 37°C, listed as Eeyarestatin I, read-out: IC50 (virucidal activity)
[5] = cell-free incubation at 37°C, read-out: IC50 (virucidal activity)

Compound	virucidal activity (loss of viral infectivity) (Zika virus [1])	toxicity in cell culture (Vero cells; 5 µM eeyarestatin I)	CC50 (Vero cells; time = 24 hours, read-out: 50% toxicity for Vero cells (CC50)) [nM]	IC50 (Usutu virus; [4]) [nM]	IC50 (Usutu virus; [5]) [nM]	virucidal activity (loss of viral infectivity) (Usutu virus)	IC50 (Usutu virus; time = 4 hours, read-out: estimated IC50) [nM]	IC50 (Zika virus [1]; [4]) [nM]	IC50 (Zika virus [1]; [5]) [nM]	IC50 (Zika virus [1]; time = 4 hours, read-out: estimated inhibitory constant) [nM]	IC50 ([2]; EEY-adapted Zika virus p9 (nine passages in 5 µM eeyarestatin I), 37°C for 4 hours) [nM]	IC50 ([2]; adapted Zika virus population (passaged 9 times in the presence of eeyarestatin I)) [nM]	IC50 ([2]; untreated Zika virus p9 (nine passages without drug), 37°C for 4 hours) [nM]	IC50 ([2]; untreated Zika virus population (nine passages in the absence of drugs)) [nM]	Zika virus replication during infections in cell culture (Zika virus [3])	selectivity index (ratio of CC50 and IC50) (Zika virus [3]; Zika virus replication in Vero cells)
NC12CC3CC(CC(C3)C1)C2 [amantadine, reference compound]	did not affect viral infectivity	–	–	–	–	–	–	–	–	–	–	–	–	–	–	–
CC1(C)C(N(O)C(=O)Nc2ccc(Cl)cc2)N(c2ccc(Cl)cc2)C(=O)N1CC(=O)N/N=C/C=C/c1ccc([N+](=O)[O-])o1 (centres unmarked) [eeyarestatin I]	significant loss of infectivity	very modest toxicity	24000	< 1000	150	inhibits Usutu virus infectivity	150	< 1000	590	< 600	130	130	310	310	inhibit Zika virus replication	–
COc1cc(O)c(CC=C(C)C)c(O)c1C(=O)/C=C/c1ccc(O)cc1 [xanthohumol, reference compound]	did not affect viral infectivity	–	–	–	–	no virucidal activity	–	–	–	–	–	–	–	–	inhibit Zika virus replication	> 5
